The values below come from PubChem BioAssay AID330 (DTP/NCI, 2004).

Values joined by “and” are separate entries in the source; they are usually repeats but may differ in a detail not shown here. Identical values can stand only once. Inconclusive results and toxic doses are left out.

In this experiment the test system is P388 leukemia ip, CD2F1 mice, survival T/C. The experiment is described as follows: NCI In Vivo Anticancer Drug Screen. Data for tumor model P388 Leukemia (intraperitoneal) in CD2F1 (CDF1) mice. The conditions noted are these: endpoint: median survival time, higher = longer survival. Summed up: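 Mice carrying the transplanted tumor received test compound or vehicle. Survival was recorded in each group, and the value is the treated-group measurement divided by that of the vehicle-treated control group.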

Where [1] appears, read: dose: 50.0 mg/kg/injection, schedule: Q01DX005 (ip), vehicle: Klucel (hydroxypropylcellulose) (HPC).
The mark [2] stands for this setting: dose: 100.0 mg/kg/injection, schedule: Q01DX005 (ip), vehicle: Klucel (hydroxypropylcellulose) (HPC).
Where [3] appears, read: dose: 200.0 mg/kg/injection, schedule: Q01DX005 (ip), vehicle: Klucel (hydroxypropylcellulose) (HPC).
[4] abbreviates: dose: 50.0 mg/kg/injection, schedule: Q01DX009 (ip), vehicle: saline.
Where [5] appears, read: dose: 50.0 mg/kg/injection, schedule: Q01DX009 (ip), vehicle: saline with Tween-80.
[6] abbreviates: dose: 100.0 mg/kg/injection, schedule: Q01DX009 (ip), vehicle: saline with Tween-80.
Setting [7] is: dose: 200.0 mg/kg/injection, schedule: Q01DX009 (ip), vehicle: saline with Tween-80.
The mark [8] stands for this setting: dose: 100.0 mg/kg/injection, schedule: Q01DX009 (ip), vehicle: saline.

Take `c1ccc(/C2=N\OCCCOc3ccccc32)cc1`: the T/C was 88 % of control under setting [1], 87 % of control under setting [2] and 87 % of control under setting [3].
In the case of `C=CCN(CC=C)P(=O)(N(CC=C)CC=C)N(CC=C)CC=C`, the T/C is, setting by setting: under setting [1], 99 % of control; under setting [2], 99 % of control.
As for `CCCCCCCCCCCC(C)[N+](C)(C)[O-]` (stereo not drawn), the T/C runs as follows: (dose: 12.5 mg/kg/injection, schedule: Q01DX009 (ip), vehicle: saline) 102 % of control; (dose: 25.0 mg/kg/injection, schedule: Q01DX009 (ip), vehicle: saline) 96 % of control; under setting [4], 87 % of control and 91 % of control.
For the compound `CC(C)(C)C1CCC(=O)C2(CCCC2)C1` (stereo not drawn), the T/C by setting is: under setting [5], 100 % of control; under setting [6], 114 % of control; under setting [7], 122 % of control.
Consider `CCOCCC(=NC(C)(C)C)Nc1ccccc1C`, for which the T/C by setting is: under setting [4], 107 % of control; under setting [8], 115 % of control.
As to `Cc1nc2sc3c(c2c2ncnn12)CCCC3`, the T/C (dose: 50.0 mg/kg/injection, schedule: Q01DX005 (ip), vehicle: saline with Tween-80) is 103 % of control; the T/C (dose: 100.0 mg/kg/injection, schedule: Q01DX005 (ip), vehicle: saline with Tween-80) is 98 % of control; the T/C (dose: 200.0 mg/kg/injection, schedule: Q01DX005 (ip), vehicle: saline with Tween-80) was 104 % of control.
As to `CCOC(=O)C1=C(C)NC(C)=C(C(=O)OCC)C1c1cccnc1`, the T/C (dose: 25.0 mg/kg/injection, schedule: Q01DX009 (ip), vehicle: distilled water + Tween-80) is 101 % of control; the T/C (dose: 50.0 mg/kg/injection, schedule: Q01DX009 (ip), vehicle: distilled water + Tween-80) was 103 % of control; the T/C (dose: 100.0 mg/kg/injection, schedule: Q01DX009 (ip), vehicle: distilled water + Tween-80) was 94 % of control; the T/C (dose: 200.0 mg/kg/injection, schedule: Q01DX009 (ip), vehicle: distilled water + Tween-80) is 93 % of control; the T/C (dose: 400.0 mg/kg/injection, schedule: Q01DX009 (ip), vehicle: distilled water + Tween-80) is 88 % of control.
Consider `COc1ccc2c3c1OC1C(O)C=CC4C(C2O)N(C)CCC341` (stereo not drawn), for which the T/C runs as follows: (dose: 50.0 mg/kg/injection, schedule: Q01DX005 (ip), vehicle: saline + Tween-80 + alcohol) 100 % of control; (dose: 100.0 mg/kg/injection, schedule: Q01DX005 (ip), vehicle: saline + Tween-80 + alcohol) 100 % of control; (dose: 200.0 mg/kg/injection, schedule: Q01DX005 (ip), vehicle: saline + Tween-80 + alcohol) 100 % of control.
As for `C#CCn1cnc2c(N)ncnc21`, the T/C is 97 % of control under setting [1] and 93 % of control under setting [2].
Consider `CCOC1NC(=S)N(C2CCCCC2)C1(C)C` (stereo not drawn), for which the T/C is 93 % of control (dose: 50.0 mg/kg/injection, schedule: Q01DX009 (ip), vehicle: suspension in saline); 92 % of control (dose: 100.0 mg/kg/injection, schedule: Q01DX009 (ip), vehicle: suspension in saline); 97 % of control (dose: 200.0 mg/kg/injection, schedule: Q01DX009 (ip), vehicle: suspension in saline).
For `Cc1ccc(S(=O)(=O)c2cncnc2N)cc1`, the T/C was 101 % of control (dose: 100.0 mg/kg/injection, schedule: Q01DX001 (ip), vehicle: saline); 110 % of control (dose: 200.0 mg/kg/injection, schedule: Q01DX001 (ip), vehicle: saline); 110 % of control (dose: 400.0 mg/kg/injection, schedule: Q01DX001 (ip), vehicle: saline).
Turning to `Fc1ccccc1CSc1ncnc2nc[nH]c12`, the T/C reads like this: under setting [5], 100 % of control; under setting [6], 100 % of control; (dose: 100.0 mg/kg/injection, schedule: Q04DX003 (ip), vehicle: saline with Tween-80) 104 % of control; (dose: 132.0 mg/kg/injection, schedule: Q04DX003 (ip), vehicle: saline with Tween-80) 100 % of control; under setting [7], 100 % of control.
On to `Cc1onc(-c2ccccc2Cl)c1C1=N/C(=C/c2cc(Cl)cc(Cl)c2O)C(=O)O1`, for which the T/C (dose: 50.0 mg/kg/injection, schedule: Q01DX009 (ip), vehicle: Klucel (hydroxypropylcellulose) (HPC)) is 114 % of control; the T/C (dose: 100.0 mg/kg/injection, schedule: Q01DX009 (ip), vehicle: Klucel (hydroxypropylcellulose) (HPC)) was 104 % of control; the T/C (dose: 200.0 mg/kg/injection, schedule: Q01DX009 (ip), vehicle: Klucel (hydroxypropylcellulose) (HPC)) was 96 % of control.
Consider `CSc1ccc(NC(=S)SC(C)C)cc1Cl`, for which the T/C by setting is: under setting [4], 97 % of control; under setting [8], 97 % of control; (dose: 200.0 mg/kg/injection, schedule: Q01DX009 (ip), vehicle: saline) 102 % of control.
As to `O=C(O)Cc1cn2ccncc2n1`, the T/C was 90 % of control (dose: 100.0 mg/kg/injection, schedule: Q01DX001 (ip), vehicle: Klucel (hydroxypropylcellulose) (HPC)); 101 % of control (dose: 200.0 mg/kg/injection, schedule: Q01DX001 (ip), vehicle: Klucel (hydroxypropylcellulose) (HPC)); 101 % of control (dose: 400.0 mg/kg/injection, schedule: Q01DX001 (ip), vehicle: Klucel (hydroxypropylcellulose) (HPC)).
Take `COC12CC(=O)C(C(C)=O)=C(O)C1(C)c1c(OC(C)=O)c(C)c(O)c(C(C)=O)c1O2` (stereo not drawn): the T/C by setting is: (dose: 25.0 mg/kg/injection, schedule: Q01DX009 (ip), vehicle: gum acacia) 106 % of control; (dose: 50.0 mg/kg/injection, schedule: Q01DX009 (ip), vehicle: gum acacia) 99 % of control and 104 % of control and 114 % of control; (dose: 100.0 mg/kg/injection, schedule: Q01DX009 (ip), vehicle: gum acacia) 124 % of control.
Turning to `C=CC(C)(Cl)C(Cl)/C=C/C(C=O)=C/Cl` (stereo not drawn), the T/C is 101 % of control (dose: 1.75 mg/kg/injection, schedule: Q01DX009 (ip), vehicle: Klucel (hydroxypropylcellulose) (HPC)); 100 % of control (dose: 3.5 mg/kg/injection, schedule: Q01DX009 (ip), vehicle: Klucel (hydroxypropylcellulose) (HPC)); 101 % of control (dose: 7.0 mg/kg/injection, schedule: Q01DX009 (ip), vehicle: Klucel (hydroxypropylcellulose) (HPC)); 100 % of control (dose: 14.0 mg/kg/injection, schedule: Q01DX009 (ip), vehicle: Klucel (hydroxypropylcellulose) (HPC)).
On to `Cc1nc(Cl)c2[nH]c(Cl)nc2n1`, for which the T/C is 102 % of control under setting [1], 102 % of control under setting [2] and 100 % of control under setting [3].
For `COc1ccccc1/C=C1/C(=O)ON=C1C`, the T/C reads like this: (dose: 60.0 mg/kg/injection, schedule: Q01DX005 (ip), vehicle: saline with Tween-80) 100 % of control; (dose: 120.0 mg/kg/injection, schedule: Q01DX005 (ip), vehicle: saline with Tween-80) 98 % of control; (dose: 240.0 mg/kg/injection, schedule: Q01DX005 (ip), vehicle: saline with Tween-80) 108 % of control.
Take `COc1cc2c(c(OC)c1OC)-c1ccc(OC)c(=O)cc1[C@@H](NC(C)=O)CC2`: the T/C (dose: 0.02 mg/kg/injection, schedule: Q01DX009 (ip), vehicle: saline) is 117 % of control; the T/C (dose: 0.06 mg/kg/injection, schedule: Q01DX009 (ip), vehicle: saline) was 119 % of control; the T/C (dose: 0.08 mg/kg/injection, schedule: Q01DX009 (ip), vehicle: saline) was 150 % of control; the T/C (dose: 0.13 mg/kg/injection, schedule: Q01DX005 (ip), vehicle: saline) is 120 % of control; the T/C (dose: 0.16 mg/kg/injection, schedule: Q01DX009 (ip), vehicle: saline) was 156 % of control; the T/C (dose: 0.32 mg/kg/injection, schedule: Q01DX009 (ip), vehicle: saline) was 186 % of control. Besides, the T/C runs as follows: (dose: 0.37 mg/kg/injection, schedule: Q01DX010 (ip), vehicle: saline) 168 % of control; (dose: 0.4 mg/kg/injection, schedule: Q01DX009 (ip), vehicle: water) 176 % of control; (dose: 0.5 mg/kg/injection, schedule: Q01DX005 (ip), vehicle: saline) 169 % of control; (dose: 0.64 mg/kg/injection, schedule: Q01DX009 (ip), vehicle: saline) 225 % of control; (dose: 0.75 mg/kg/injection, schedule: Q01DX010 (ip), vehicle: saline) 159 % of control; (dose: 1.0 mg/kg/injection, schedule: Q01DX005 (ip), vehicle: saline) 160 % of control and 197 % of control and 205 % of control. Further, the T/C by setting is: (dose: 1.25 mg/kg/injection, schedule: Q01DX009 (ip), vehicle: saline) 100 % of control (2×) and 281 % of control; (dose: 2.0 mg/kg/injection, schedule: Q01DX005 (ip), vehicle: saline) 175 % of control.
